Measurements reported in article PMC13195669, “GPR3 Ligands Discovered through Combined Virtual and Conformational Biosensor-Based Screening” (Journal of the American Chemical Society, 2026).

Target: T1, GPR12 (Homo sapiens, UniProt P47775)
T1 construct: expressed in transfected cells; host or cells: HEK293A, transient
T1 sequence (P47775 1-334): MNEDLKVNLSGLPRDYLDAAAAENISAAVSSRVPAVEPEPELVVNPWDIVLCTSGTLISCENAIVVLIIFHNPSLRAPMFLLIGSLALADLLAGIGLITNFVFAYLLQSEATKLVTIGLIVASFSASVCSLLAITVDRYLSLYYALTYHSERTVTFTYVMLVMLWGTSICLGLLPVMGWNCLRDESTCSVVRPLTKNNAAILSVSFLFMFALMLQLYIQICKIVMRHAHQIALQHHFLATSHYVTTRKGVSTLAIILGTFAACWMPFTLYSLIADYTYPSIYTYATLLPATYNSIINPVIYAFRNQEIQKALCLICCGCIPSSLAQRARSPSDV
Experiment: cAMP GloSensor 22F, GPR12-transfected HEK293A cells
Assay type: cell-based
From the text: Next, we used the classical cAMP GloSensor technology to assess the target selectivity profile of 33. […] In addition, we tested the effects of 33 on cAMP changes mediated by agonist-stimulated GPCRs phylogenetically close to GPR3 and coupling to Gs or Gi/o proteins. […]
conditioning and no constraints were applied. The poses were visually inspected and the most favorable one that coincides with the co-solved ligand according to the available structures was chosen.
Plasmids and molecular cloning
The H187-EPAC-FRET sensor7 was kindly provided by K. Jalink (The Netherlands Cancer Institute, Amsterdam, The Nether-lands). The BRET-based cAMP sensor CAMYEL8 was kindly provided by Laura Humphrys (University of Regensburg, Regens-burg, Germany). Plasmids encoding the conformational biosensors α2AAR- and β2AR-HaloTag/Nluc9 and the Gs heterotrimer dissociation sensor10 were previously described. The expression plasmid encoding N-terminally HA-tagged GPR3 (cat. no.
#GPR003TN00) on a pcDNA3.1+ vector was obtained from the cDNA resource center (cdna.org). The Nluc and HaloTag in-serts were amplified with overhanging restriction sites from β2AAR- HaloTag/Nluc and ligated to the full-length C-terminus or inserted into icl3 of GPR3, respectively, to obtain the conformational biosensor GPR3-HaloTag/Nluc. […]

N=c1n(Cc2ccccc2)c2ccccc2n1CC1CC1 [compound 33]
receptor-specific change in cAMP, GPR12: no receptor-specific changes in cAMP levels below 100 μM
